The target of one assay is T1, wildtype Kras / hSOS1 (Homo sapiens, UniProt P01116).
T1 construct: made in house; host or cells: E. coli BL21 (DE3)
Put plainly: HTRF assay, wildtype Kras / SOS1 interaction. The format is binding. The conditions noted are these: compound nos. 401-703; read-out: IC50 against wildtype Kras. The gist of the method: (§1)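 Compounds tested in duplicate from 10 μM down to 0.01 μM, incubated about 10 min or longer with GST-K-Ras/anti-GST-Eu and His-hSOS1/anti-6His-XL665 in ~5 mM HEPES pH 7.4 buffer with ~150 mM NaCl, DTT, BSA and Igepal. IC50 derived from 665/620 nm emission ratio.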

Assay [1] deals with GST-tagged K-Ras mutant / His-tagged hSOS1 (Homo sapiens, UniProt P01116). Put plainly: HTRF assay, K-Ras mutant / SOS1 interaction. The format is binding. The conditions noted are these: compound nos. 401-703; read-out: IC50 against mutant Kras. The gist of the method:
as §1
Background: TR-FRET usually uses a lanthanide donor and a delayed reading to cut background.

Our source for the IC50 values is patent US20240254129A1, “HETEROCYCLIC COMPOUNDS AND USES THEREOF” (Kumquat Biosciences Inc., priority 2021, published 2024).

Chain of GST-tagged K-Ras mutant / His-tagged hSOS1 (P01116 whole entry G12D, form open): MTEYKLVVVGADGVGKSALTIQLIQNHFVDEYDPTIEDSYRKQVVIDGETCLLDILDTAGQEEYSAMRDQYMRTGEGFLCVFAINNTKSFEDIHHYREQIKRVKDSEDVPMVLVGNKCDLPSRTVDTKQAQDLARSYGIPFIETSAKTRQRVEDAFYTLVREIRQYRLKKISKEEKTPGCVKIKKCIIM
T1 sequence (P01116 1-188 isoform P01116-2): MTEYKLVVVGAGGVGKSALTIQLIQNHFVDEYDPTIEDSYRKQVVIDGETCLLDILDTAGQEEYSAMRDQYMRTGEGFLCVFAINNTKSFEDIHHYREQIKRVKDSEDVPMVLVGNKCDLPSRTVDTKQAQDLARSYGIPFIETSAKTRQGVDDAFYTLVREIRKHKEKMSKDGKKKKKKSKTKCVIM

For orientation: IC50 means the concentration needed to halve the response being measured. Take `Nc1cc(-c2ccc3c(N4CC5CCC(C4)N5)nc(OCC45CCCN4CCC5)nc3c2F)c2ccccc2n1` [Compound 641, 4-(4-(3,8-diazabicyclo-[3.2.1]octan-3-yl)-8-fluoro-2-((tetrahydro-1H-pyrrol-izin-7a(5H)-yl)methoxy)-quinazolin-7-yl)quinolin-2-amine]: the IC50 (on wildtype Kras / hSOS1; in assay [1]) was above 500 nM throughout.

For `CN1CCC[C@H]1COc1nc(N2CCC(F)C(F)CC2)c2cc(Cl)c(-c3cccc4sc(N)nc34)c(F)c2n1` (stereo partly drawn) [Compound 642, 4-(6-chloro-4-(4,5-difluoro-azepan-1-yl)-8-fluoro-2-(((S)-1-methylpyrrolidin-2-yl)methoxy)quinazolin-7-yl)-benzo[d]thiazol-2-amine], the values for the IC50 (at wildtype Kras / hSOS1; in assay [1]) were above 500 nM and below 500 nM, respectively.

As for `N#Cc1c(N)sc2c(F)ccc(-c3c(Cl)cc4c(N5C[C@H]6CC[C@@H](C5)N6CC5COC5)nc(OC[C@@]56CCCN5C[C@H](F)C6)nc4c3F)c12` [Compound 643, 2-amino-4-(6-chloro-8-fluoro-2-(((2R,7aS)-2-fluorotetrahydro-1H-pyrrolizin-7a(5H)-yl)-methoxy)-4-((1R,5S)-8-(oxetan-3-yl-methyl)-3,8-diazabicyclo[3.2.1]-octan-3-yl)quinazolin-7-yl)-7-fluorobenzo[b]-thiophene-3-carbonitrile], the IC50 is above 500 nM at wildtype Kras / hSOS1 and below 500 nM in assay [1].

On to `CS(=O)(=O)N1CCCN(c2nc(OC[C@@]34CCCN3C[C@H](F)C4)nc3c(F)c(-c4ccc(F)c5sc(N)nc45)c(Cl)cc23)CC1` [Compound 644, 4-(6-chloro-8-fluoro-2-(((2R,7aS)-2-fluorotetra-hydro-1H-pyrrolizin-7a(5H)-yl)methoxy)-4-(4-(methylsulfonyl)-1,4-diazepan-1-yl)quinazolin-7-yl)-7-fluorobenzo[d]thia-zol-2-amine], for which the IC50 is above 500 nM on wildtype Kras / hSOS1 and below 500 nM in assay [1].

Consider `Cc1nc(N2CCCCCC2)c2cc(Cl)c(-c3cccc4sc(N)nc34)cc2n1` [Compound 645, 4-(4-(azepan-1-yl)-6-chloro-2-methylquinazolin-7-yl)-benzo[d]thiazol-2-amine], for which the IC50 (at wildtype Kras / hSOS1; in assay [1]) was above 500 nM throughout.

Regarding `CCCC1CCCN(c2nc(OC[C@@H]3CCCN3C)nc3c(F)c(-c4cccc5sc(N)nc45)c(Cl)cc23)CC1` (stereo partly drawn) [Compound 646, 4-(6-chloro-8-fluoro-2-(((S)-1-methylpyrrolidin-2-yl)-methoxy)-4-(4-propylaze-pan-1-yl)quinazolin-7-yl)-benzo[d]thiazol-2-amine], the IC50 (on wildtype Kras / hSOS1; in assay [1]) was above 500 nM throughout.

Regarding `CN(CCC1CCC[N+]1(C)C)c1nc(N2CC3CCC(C2)N3)c2ccc(-c3ccc(F)c4sc(N)nc34)nc2n1` (stereo not drawn) [Compound 647, 4-(4-(3,8-diazabicyclo-[3.2.1]octan-3-yl)-2-((2-(1,1-dimethyl-114-pyrrol-idin-2-yl)ethyl)(methyl)-amino)pyrido[2,3-d]pyr-imidin-7-yl)-7-fluoroben-zo[d]thiazol-2-amine], the 50% inhibitory concentration (IC50) (at wildtype Kras / hSOS1; in assay [1]) was above 500 nM throughout.

Consider `Cc1cc(N)nc(-c2ccc3c(N4CC5CCC(C4)N5)nc(OC[C@@]45CCCN4C[C@H](F)C5)nc3c2F)c1C1CC1` [Compound 648, 6-(4-(3,8-diazabicyclo-[3.2.1]octan-3-yl)-8-fluoro-2-(((2R,7aS)-2-fluorotetra-hydro-1H-pyrrolizin-7a(5H)-yl)methoxy)quinazolin-7-yl)-5-cyclopropyl-4-methyl-pyridin-2-amine], for which the IC50 (on wildtype Kras / hSOS1; in assay [1]) was above 500 nM in each case.

`Nc1nc2c(-c3c(Cl)cc4c(N5CCN(Cc6cncnc6)CC(F)(F)C5)nc(OC[C@@]56CCCN5C[C@H](F)C6)nc4c3F)ccc(F)c2s1` [Compound 649, 4-(6-chloro-4-(6,6-difluoro-4-(pyrimidin-5-ylmethyl)-1,4-diazepan-1-yl)-8-fluoro-2-(((2R,7aS)-2-fluorotetra-hydro-1H-pyrrolizin-7a(5H)-yl)methoxy)quinazolin-7-yl)-7-fluorobenzo[d]thiazol-2-amine]: the IC50 at wildtype Kras / hSOS1 is above 500 nM; in assay [1], below 500 nM.

As to `Oc1ccc2ccc(-c3c(Cl)cc4c(N5CC6CCC(C5)N6)nc(OCC56CCCN5CCC6)nc4c3F)cc2c1` [Compound 650, 7-(4-(3,8-diazabicyclo-[3.2.1]octan-3-yl)-6-chloro-8-fluoro-2-((tetrahydro-1H-pyrrolizin-7a(5H)-yl)meth-oxy)quinazolin-7-yl)naph-thalen-2-ol], the IC50 (on wildtype Kras / hSOS1; in assay [1]) was above 500 nM throughout.

As to `CN1CCC[C@H]1COc1nc(N2CCCC(n3ccnc3)CC2)c2cc(Cl)c(-c3cccc4sc(N)nc34)c(F)c2n1` (stereo partly drawn) [Compound 651, 4-(4-(4-(1H-imidazol-1-yl)-azepan-1-yl)-6-chloro-8-fluoro-2-(((S)-1-methyl-pyrrolidin-2-yl)methoxy)-quinazolin-7-yl)benzo[d]-thiazol-2-amine], the IC50 at wildtype Kras / hSOS1 is above 500 nM; in assay [1], below 500 nM.

Take `Nc1cccc(-c2ccc(O)cc2-c2c(Cl)cc3c(N4CC5CCC(C4)N5)nc(OCC45CCCN4CCC5)nc3c2F)c1` [Compound 652, 2-(4-(3,8-diazabicyclo-[3.2.1]octan-3-yl)-6-chloro-8-fluoro-2-((tetrahydro-1H-pyrrolizin-7a(5H)-yl)meth-oxy)quinazolin-7-yl)-3′-amino-[1,1′-biphenyl]-4-ol]: the IC50 (on wildtype Kras / hSOS1; in assay [1]) was above 500 nM throughout.

As for `Nc1nc2c(-c3c(Cl)cc4c(N5CC6CCC(C5)N6)nc(OCC5(CN6CCCC6)CC5)nc4c3F)cccc2o1` [Compound 653, 4-(4-(3,8-diazabicyclo-[3.2.1]octan-3-yl)-6-chloro-8-fluoro-2-((1-(pyrrolidin-1-ylmethyl)cyclopropyl)meth-oxy)quinazolin-7-yl)benzo-[d]oxazol-2-amine], the figures for the IC50 (at wildtype Kras / hSOS1; in assay [1]) were above 500 nM and below 500 nM, respectively.

Consider `Fc1c(-c2cccc3[nH]ncc23)ccc2c(N3CC4CCC(C3)N4)nc(OC[C@@]34CCCN3C[C@H](F)C4)nc12` [Compound 654, 4-(3,8-diazabicyclo[3.2.1]-octan-3-yl)-8-fluoro-2-(((2R,7aS)-2-fluorotetra-hydro-1H-pyrrolizin-7a(5H)-yl)methoxy)-7-(1H-indazol-4-yl)quinazoline], for which the IC50 (on wildtype Kras / hSOS1; in assay [1]) was above 500 nM each time.

With `Nc1nc2c(-c3c(Cl)cc4c(N5C[C@H]6CC[C@@H](C5)C6(F)F)nc(OC[C@@]56CCCN5C[C@H](F)C6)nc4c3F)ccc(F)c2s1` [Compound 655, 4-(6-chloro-4-((1R,5S)-8,8-difluoro-3-azabicyclo[3.2.1]-octan-3-yl)-8-fluoro-2-(((2R,7aS)-2-fluorotetra-hydro-1H-pyrrolizin-7a(5H)-yl)methoxy)quinazolin-7-yl)-7-fluorobenzo[d]thiazol-2-amine], the IC50 (at wildtype Kras / hSOS1; in assay [1]) was above 500 nM in each case.

For `CNCCN1[C@@H]2CC[C@H]1CN(c1nc(OCC34CCCN3CCC4)nc3c(F)c(-c4ccc(F)c5sc(N)nc45)c(Cl)cc13)C2` [Compound 656, 4-(6-chloro-8-fluoro-4-((1R,5S)-8-(2-(methyl-amino)-ethyl)-3,8-diaza-bicyclo[3.2.1]octan-3-yl)-2-((tetrahydro-1H-pyrrol-izin-7a(5H)-yl)methoxy)-quinazolin-7-yl)-7-fluoro-benzo[d]thiazol-2-amine], the IC50 at wildtype Kras / hSOS1 was above 500 nM; in assay [1], below 500 nM.

As to `Fc1c(-c2cccc3cn[nH]c23)ccc2c(N3CC4CCC(C3)N4)nc(OC[C@@]34CCCN3C[C@H](F)C4)nc12` [Compound 657, 4-(3,8-diazabicyclo[3.2.1]-octan-3-yl)-8-fluoro-2-(((2R,7aS)-2-fluorotetra-hydro-1H-pyrrolizin-7a(5H)-yl)methoxy)-7-(1H-indazol-7-yl)quinazoline], the IC50 (on wildtype Kras / hSOS1; in assay [1]) was above 500 nM each time.

Take `Oc1cc(CN2CCc3nc(OCC45CCCN4CCC5)nc(N4CC5CCC(C4)N5)c3CC2)c2ccccc2c1` [Compound 658, 4-((4-(3,8-diazabicyclo-[3.2.1]-octan-3-yl)-2-((tetrahydro-1H-pyrrolizin-7a(5H)-yl)methoxy)-5,6,8,9-tetrahydro-7H-pyrimido-[4,5-d]azepin-7-yl)methyl)-naphthalen-2-ol]: the IC50 (on wildtype Kras / hSOS1; in assay [1]) was above 500 nM each time.

As to `Cc1ccc(C2(N)CC2)cc1-c1c(Cl)cc2c(N3CC4CCC(C3)N4)nc(OCC34CCCN3CCC4)nc2c1F` [Compound 661, 1-(3-(4-(3,8-diazabicyclo-[3.2.1]octan-3-yl)-6-chloro-8-fluoro-2-((tetrahydro-1H-pyrrolizin-7a(5H)-yl)meth-oxy)quinazolin-7-yl)-4-methylphenyl)cyclopropan-1-amine], the half-inhibitory concentration (IC50) (at wildtype Kras / hSOS1; in assay [1]) was above 500 nM throughout.

Turning to `Nc1nc2c(-c3c(Cl)cc4c(N5CC6CCC(C5)N6)nc(OC[C@@]56CCCN5C[C@H](F)C6)nc4c3F)cccc2cc1F` [Compound 665, 8-(4-(3,8-diazabicyclo-[3.2.1]octan-3-yl)-6-chloro-8-fluoro-2-(((2R,7aS)-2-fluorotetrahydro-1H-pyrrol-izin-7a(5H)-yl)methoxy)-quinazolin-7-yl)-3-fluoro-quinolin-2-amine], the IC50 (at wildtype Kras / hSOS1; in assay [1]) was above 500 nM throughout.

Regarding `Nc1cccc(-c2ccccc2-c2c(Cl)cc3c(N4CCCCCC4)nc(OCC45CCCN4CCC5)nc3c2F)c1` [Compound 666, 2′-(4-(azepan-1-yl)-6-chloro-8-fluoro-2-((tetrahydro-1H-pyrrolizin-7a(5H)-yl)meth-oxy)quinazolin-7-yl)-[1,1′-biphenyl]-3-amine], the IC50 (on wildtype Kras / hSOS1; in assay [1]) was above 500 nM in each case.
